This note sets out measurements from article PMC5608758, “A brain-targeting lipidated peptide for neutralizing RNA-mediated toxicity in Polyglutamine Diseases” (Scientific Reports, 2017).

“Also recorded” adds a separate entry of the source. Residues, ends and D or L forms follow the SMILES beside them. *: point of attachment. Palmitoyl = CCCCCCCCCCCCCCCC(=O)*

For one data set, the system named is wild type Drosophila. Kind of data set: Egg-to-adult viability of wild type flies. Format: in vivo. The note with it: fly food containing 10 or 50 µM peptide, 21.5 °C; 3 independent experiments. The method, then:
Flies were raised at 21.5 °C on cornmeal medium supplemented with dry yeast. Fly lines bearing UAS-DsRed CAG0 and UAS-DsRed CAG100 were kind gifts of Professor Nancy Bonini (University of Pennsylvania, USA). The gmr-GAL4 fly line was obtained from Bloomington Drosophila Stock Center. For pseudopupil assay, third instar larvae were fed with various amount of respective peptides dissolved in 2% sucrose solution for 2 hr and then continued to culture in standard fly food at 21.5 °C[38]. Pseudopupil assay was performed on 12 day-old adult flies as mentioned previously. Images were captured by SPOT Insight CCD camera controlled by the SPOT Advanced software (Diagnostic instruments Inc.). Image processing was performed using the Adobe Photoshop CS software (Adobe). Each experiment was repeated at least 3 times (n = 10 fly heads), and consistent results were obtained. […] Viability from egg-to-adult was calculated as the number of adult flies collected divided by the number of eggs examined. […]
viability of wild type Drosophila from egg to adult. […] Viability from egg to adult was calculated as the number of adult flies collected divided by the number of eggs examined. Data are expressed as mean ± S.E.M. for 3 independent experiments. […]

In the next data set the test system is HEK293 cells. Kind of data set: Cellular uptake studies in HEK293 cells. The format is in vitro ADME. The note with it: 3 hr, 37 °C, cell lysate, LC/MS, normalized to total protein; for cellular uptake level: 100 nM peptide. The method, then:
HEK293 cells were seeded on a 6-well plate at a density of 6 × 10^5 and cultured overnight at 37 °C with 5% CO2 in DMEM supplemented with 10% FBS and 1% penicillin-streptomycin. Cells were then treated with 100, 500 or 1000 nM of respective peptide at 37 °C for 3 hr. After treatment, the cells were washed with ice-cold PBS and then lysed by 2% SDS solution. Aliquot (100 µl) of the cell lysate was added with 200 µl acetonitrile and centrifuged at 13000 rcf for 10 min to precipitate the proteins. The collected supernatant was subjected to LC/MS analysis. The protein concentration of the cell lysate was measured using a bicinchoninic acid protein assay kit following Sigma’s protocol.

A further data set deals with DsRed CAG0 Drosophila. Kind of data set: Pseudopupil assay in control flies (toxicity). Format: in vivo. The settings on record: P3V8 at up to 50 µM. The protocol: Flies were raised at 21.5 °C on cornmeal medium supplemented with dry yeast. Fly lines bearing UAS-DsRed CAG0 and UAS-DsRed CAG100 were kind gifts of Professor Nancy Bonini (University of Pennsylvania, USA). The gmr-GAL4 fly line was obtained from Bloomington Drosophila Stock Center. […] Pseudopupil assay was performed on 12 day-old adult flies as mentioned previously. Images were captured by SPOT Insight CCD camera controlled by the SPOT Advanced software (Diagnostic instruments Inc.). Image processing was performed using the Adobe Photoshop CS software (Adobe). Each experiment was repeated at least 3 times (n = 10 fly heads), and consistent results were obtained. For viability test of wild-type flies from egg to adult stage, eggs born within 5 hr were collected and cultured in fly food containing 10 or 50 μM of respective peptides at 21.5°C. Viability from egg-to-adult was calculated as the number of adult flies collected divided by the number of eggs examined. Each experiment was repeated for three times (at least 130 eggs were examined in each group). Two batches of independently synthesized peptides were used in the experiments.

Another data set relates to DsRed CAG100 Drosophila. The data set is described as follows: Pseudopupil assay of retinal degeneration. Format: in vivo. The note with it: 1 µM peptide fed to third instar larvae for 2 hr in 2% sucrose; 12 day-old adult flies; mean ± S.E.M. The method, then: Flies were raised at 21.5 °C on cornmeal medium supplemented with dry yeast. Fly lines bearing UAS-DsRed CAG0 and UAS-DsRed CAG100 were kind gifts of Professor Nancy Bonini (University of Pennsylvania, USA). The gmr-GAL4 fly line was obtained from Bloomington Drosophila Stock Center. For pseudopupil assay, third instar larvae were fed with various amount of respective peptides dissolved in 2% sucrose solution for 2 hr and then continued to culture in standard fly food at 21.5 °C[38]. Pseudopupil assay was performed on 12 day-old adult flies as mentioned previously. Images were captured by SPOT Insight CCD camera controlled by the SPOT Advanced software (Diagnostic instruments Inc.). Image processing was performed using the Adobe Photoshop CS software (Adobe). Each experiment was repeated at least 3 times (n = 10 fly heads), and consistent results were obtained. For viability test of wild-type flies from egg to adult stage, eggs born within 5 hr were collected and cultured in fly food containing 10 or 50 μM of respective peptides at 21.5°C. Viability from egg-to-adult was calculated as the number of adult flies collected divided by the number of eggs examined. Each experiment was repeated for three times (at least 130 eggs were examined in each group). Two batches of independently synthesized peptides were used in the experiments.

The subject of data set [1] is pre-45s rRNA in EGFP CAG78 RNA-expressing HEK293 cells. The data set is described as follows: Real-time PCR of pre-45s rRNA level in cells. The settings on record: peptide transfected with DeliverX. Format: cell-based. The protocol: HEK293 cells were cultured at 37 °C with 5% CO2 in DMEM supplemented with 10% FBS and 1% penicillin-streptomycin. Primary rat cortical neurons were isolated and cultured as previously described. Transient transfection of HEK293 cells was performed using Lipofectamine 2000 (Life Technologies). P3V8 were delivered to HEK293 cells using the DeliverX (DX) Peptide Transfection Kit (Affymetrix) 4 hr after DNA transfection. At least two batches of independently synthesized peptides were used in the experiments.
(§1) RNA was extracted from cells or ten 12 day-old adult fly heads by Trizol reagent (Life Technologies), and 1 μg of purified RNA was then used for reverse-transcription using the ImPromII™ Reverse Transcription System (Promega). Random hexamer (Roche) was used as primers in reverse transcription. Taqman gene expression assays were performed on an ABI 7500 Real-time PCR system and data were analyzed as previously described. The following probes were used: pre-45s rRNA (Assay ID: AILJIZM), pre-rRNA (Assay ID: AIMSG5U), Drosophila GAPDH (Assay ID: Dm01841186) and human actin (Assay ID: Hs99999903_m1). Each experiment was repeated at least 3 times.
Background: Real-time PCR tracks product formation cycle by cycle.

The subject of data set [2] is pre-rRNA in DsRed CAG100 flies. Kind of data set: Real-time PCR of pre-rRNA level in fly heads. The format is in vivo, Drosophila. The settings on record: 1 μM peptide, 12 day-old adult fly heads. The method, then:
as §1

As for `CCCCCCCCCCCCCCCC(=O)N[C@@H](CC(=O)O)C(=O)NCC(=O)N[C@@H](CCCCN)C(=O)N[C@@H](CO)C(=O)N[C@@H](CCCCN)C(=O)NCC(=O)N[C@H](C(=O)N[C@@H](C)C(=O)N[C@@H](Cc1ccc(O)cc1)C(=O)N[C@H](C(=O)N[C@@H](CCC(=O)O)C(=O)N[C@@H](Cc1ccccc1)C(=O)N[C@@H](CCCCN)C(N)=O)[C@@H](C)CC)[C@@H](C)CC` [L1P3V8] (Palmitoyl-DGKSKGIAYIEFK-NH2), the egg-to-adult viability entry in the data set on wild type Drosophila is reported as “did not affect; also recorded: no obvious alteration”. In the data set with HEK293 cells, the cellular uptake level entry is “low cellular concentration”. Also, the “cellular uptake level compared to P3V8” value in the data set with HEK293 cells (500 nM and 1 µM peptide) is on record as “higher cellular concentration”. Besides, the “toxic effect on control flies” value with DsRed CAG0 Drosophila is on record as “no cytotoxic effects”.
On to Ac-DGKSKGIAYIEFK-NH2 [P3V8], for which the cellular uptake level result with HEK293 cells is “no uptake”. Further, the pseudopupil score in the data set on DsRed CAG100 Drosophila is on record as 4.32 ± 0.25. The “restoration of pre-45s rRNA level” value in data set [1] is given as “dose-dependent restoration”. The pre-rRNA level result in data set [2] was “fully recovered to the DsRed CAG0 control level”.
